Experimental data: patent publication US6342368B1, “WD-40-derived peptides and uses thereof” (The Board of Trustees of the Leland Stanford Junior …, priority 1994, dated 2002)
“Also recorded” adds a separate entry of the source.

Legend:
δ and εPKC isozymes = experiment: PKC isozyme translocation and degradation in cardiac myocytes; assay type: cell-based, rat
Protocol: In cardiac myocytes, norepinephrine (NE, 2 μM) causes translocation of δ and εPKC isozymes from the cytosolic to the particulate fraction. […] This peptide-induced translocation was followed by degradation of δ and εPKC isozymes.

PKC = experiment: Histone type IIIs phosphorylation by PKC; assay type: biochemical; settings: absence of PS, DG and calcium; peptide 10 μM
Protocol: Histone type IIIs (Sigma Chemical Company, St. Louis, Mo.) was phosphorylated by PKC (˜10 nM) in the absence (lane 1) and presence of peptide rVI (10 μM) (lanes 2 and 3) and in the presence and absence of DG (0.8 μg/ml), PS (50 μg/ml) and CaCl2 (1 mM) (lane 3). The results are expressed as percentage of control that is the amount of Histone phosphorylation by PKC in the presence of DG (0.8 μg/ml), PS (50 μg/ml) and CaCl2 (1 mM). The results are the average ± SEM of two independent experiments. PKC was first incubated with the peptide rVI (10 μM) for 15 minutes in overlay buffer as described above. Histone type IIIs (40 μg/ml) was added in Tris-HCl (20 mM), MgCl2 (20 mM), ATP (20 μM) and ([γ-^32P]ATP (5 μci/ml) with or without PS (50 μg/ml), DG (0.8 μg/ml) and CaCl2 (1 mM). Histone phosphorylation was determined by autoradiography as above.

[1] = peptide introduced into cardiac myocytes

Row | Substance | NE-induced translocation of δ and εPKC (δ and εPKC isozymes; norepinephrine 2 μM) | degradation of PKC isozymes (δ and εPKC isozymes; [1]) | translocation / distribution of δ and εPKC isozymes in the absence of hormone stimulation (δ and εPKC isozymes; [1]) | induction of PKC-mediated histone phosphorylation (PKC)
1 | peptide I: 15-residue peptide homologous to a sequence in the sixth WD-40 repeat of RACK1; PKC antagonist (KGDYEKILVALCGGN) | inhibited | nor does it induce PKC degradation; also recorded: did not cause degradation | does not affect PKC distribution | 
2 | peptide rVI: eight amino acid peptide identical to a segment of RACK1 WD-40 repeat VI (DIINALCF) |  |  |  | effective to induce PKC-mediated histone phosphorylation; also recorded: induced histone phosphorylation
